Assay results taken from PubChem BioAssay (NCI).
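Each compound was tested at five concentrations against cells in 96-well plates for 48 hours. At the GI50, growth is halved. TGI marks complete inhibition of growth.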

What was measured:
Experiment in all cases: NCI anticancer screen, dose series, 48 h
HS 578T breast = tested on: HS 578T breast
MCF7 breast = tested on: MCF7 breast
MDA-MB-435 = tested on: MDA-MB-435
NCI/ADR-RES ovarian = tested on: NCI/ADR-RES ovarian
PC-3 prostate = tested on: PC-3 prostate

| Compound | GI50 (HS 578T breast) | TGI (HS 578T breast) | GI50 (MCF7 breast) | TGI (MCF7 breast) | GI50 (MDA-MB-435) | TGI (MDA-MB-435) | GI50 (NCI/ADR-RES ovarian) | TGI (NCI/ADR-RES ovarian) | GI50 (PC-3 prostate) | TGI (PC-3 prostate) |
| --- | --- | --- | --- | --- | --- | --- | --- | --- | --- | --- |
| CCCCCCCCCCCCC(NC(C)=O)(C(=O)OCC)C(=O)OCC | 14 µM | 45.8 µM | 7.41 µM | 21.2 µM | 12.6 µM | 31.7 µM | 10.3 µM | 23.7 µM | 7.03 µM | 21.1 µM |
| N#Cc1ccc(NC(=O)Nc2nc3ccc(OC(F)(F)F)cc3s2)cc1 | 1.78 µM | 7.65 µM | 1 µM | 11.6 µM | 1.42 µM | 6.79 µM | 1.55 µM | 8.39 µM | 1.36 µM | 12.2 µM |
| COC1C(O)CC(OC2CC(OC3CC(O[C@@H]4C(=O)c5c(cc6cc(OC7CC(OC8CC(O)C(O)C(C)O8)C(O)C(C)O7)c(C)c(O)c6c5O)CC4[C@H](OC)[C@@H](O)C(C)=O)OC(C)C3O)OC(C)C2O)OC1C (some centres not stated) | 0.0307 µM | > 33.3 µM | 0.00649 µM | > 33.3 µM | 0.0156 µM | 7.07 µM | > 28.2 µM | > 33.3 µM | 0.0243 µM | > 33.3 µM |
| Cc1ccccc1C[P+](c1ccccc1)(c1ccccc1)c1ccccc1 | 2.13 µM | 33.7 µM | 0.649 µM | 39.6 µM | 0.938 µM | 21.3 µM | > 100 µM | > 100 µM | – | – |
| CN1CCN(c2ccc(-c3cccc(CN4CCOCC4)c3)cc2NC(=O)c2c[nH]c(=O)cc2C(F)(F)F)CC1 | 44.8 µM | > 100 µM | 33.1 µM | > 100 µM | 30.2 µM | > 100 µM | > 100 µM | > 100 µM | 32.3 µM | > 100 µM |
| COc1ccccc1N1CCN(CCCOc2ccc(C(=O)/C=C3/C(=O)Nc4ccccc43)cc2)CC1 | 22.5 µM | > 52.7 µM | 7.17 µM | 31.8 µM | 13.6 µM | 52.3 µM | 9.53 µM | 40.9 µM | 12 µM | > 100 µM |
| Cc1ccc(-n2c3c(c4c(CN)c(O)ccc42)CCc2ccccc2C3=O)cc1 | 0.456 µM | 5.03 µM | 17.3 µM | > 100 µM | 3 µM | 8.87 µM | 12.5 µM | 28.5 µM | 4.77 µM | 19.3 µM |
| C[C@@H]1OC(=O)NN=C1c1ccc(-c2ccc(F)cc2)c(C(F)(F)F)c1 | – | 3.37 µM | 10.1 µM | 25 µM | 3.57 µM | 13.9 µM | 5.08 µM | 21.2 µM | 10.5 µM | 26.8 µM |
| CCN(CC)CCOc1ccc(Cc2ccccc2)cc1 | 13.6 µM | 52.4 µM | 27.6 µM | > 100 µM | 18.5 µM | 44.2 µM | 26.2 µM | > 100 µM | 26.2 µM | > 100 µM |
| CN[C@H]1CC[C@]23C[C@]24CC[C@]2(C)[C@@H]([C@H](C)N(C)C)CC[C@@]2(C)[C@@H]4CC[C@H]3C1(C)C | – | 48 µM | – | 36.2 µM | – | 29.8 µM | – | 36.6 µM | – | 29 µM |
